Experimental data reported in patent US20210198204A1, “PRODRUGS OF KALLIKREIN INHIBITORS” (BioCryst Pharmaceuticals, Inc., priority 2016, published 2021).

Assay: Plasma pharmacokinetics of the parent compound after a single oral dose of prodrug
Format: in vivo
Conditions: single oral dose 10 mg/kg, fasted male Sprague Dawley rats; plasma analyzed for the parent compound; study duration 8 h
Protocol: Plasma pharmacokinetics of compounds was determined using three male Sprague Dawley rats following a single oral dose administration. All animals were placed in a rat metabolic cage, isolated, and fasted approximately 15 hours prior to dosing. Identifying markers were placed on each animal. Each animal was weighed prior to dose administration. Animals were administered orally with a solution formulation of test compound either in water or a combination of water/propylene glycol, at a dose of 10 mg/kg. Gavage needles were attached to syringes and filled with appropriate amount of test article to be dosed. Blood samples (approximately 500 μL) were collected from three rats at pre-dose (time 0), 0.5, 1, 2, 4, 8, 12 and 24 hr, respectively, depending on study duration. Samples were collected into labeled micro centrifuge tubes containing (heparin solution) as an anticoagulant. Plasma was immediately harvested from the blood by centrifugation at 14,000 rpm for 3 min at 4° C., and stored below −70° C. until bioanalysis. Individual plasma samples were analyzed for the parent compound, 3-[2-(4-carbamimidoyl-phenylcarbamoyl)-5-methoxy-4-vinyl-phenyl]-6-(cyclopropylmethyl-carbamoyl)-pyridine-2-carboxylic acid. As shown in Table-1, the test compounds yielded varying degrees of exposure to the parent compound. The test compounds generally provided for improved bioavailability of the parent compound as compared to dosing of the parent compound in aqueous solutions.

Row | Structure (SMILES) | AUC0-last hour (area under the curve)
1 | C=Cc1cc(C(=O)Nc2ccc(C(=N)NC(=O)OCCCCCC)cc2)c(-c2ccc(C(=O)NCC3CC3)nc2C(=O)OC(C)OC(=O)C(C)C)cc1OC (stereo not shown) [Compound 36b, 1-(isobutyryloxy)ethyl 6-((cyclopropylmethyl)carbamoyl)-3-(2-((4-(N-((hexyloxy)carbonyl)carbamimidoyl)phenyl)carbamoyl)-5-methoxy-4-vinylphenyl)picolinate] | C (C >10,000 ng/mL)
2 | C=Cc1cc(C(=O)Nc2ccc(C(=N)N)cc2)c(-c2ccc(C(=O)NCC3CC3)nc2C(=O)OCOC(=O)CN)cc1OC.Cl [Compound 37e, (2-aminoacetoxy)methyl 3-(2-((4-carbamimidoylphenyl)carbamoyl)-5-methoxy-4-vinylphenyl)-6-((cyclopropylmethyl)carbamoyl)picolinate Hydrochloride] | B (B = 1,001-10,000 ng/mL)
3 | C=Cc1cc(C(=O)Nc2ccc(C(=N)NC(=O)OCCCCCC)cc2)c(-c2ccc(C(=O)NCC3CC3)nc2C(=O)OC(C)OC(=O)OC(C)C)cc1OC (stereo not shown) [Compound 39a, 1-((isopropoxycarbonyl)oxy)ethyl 6-((cyclopropylmethyl)carbamoyl)-3-(2-((4-(N-((hexyloxy)carbonyl)carbamimidoyl)phenyl)carbamoyl)-5-methoxy-4-vinylphenyl)picolinate] | C (C >10,000 ng/mL)
4 | C=Cc1cc(C(=O)Nc2ccc(C(=N)NC(=O)OCCCCCC)cc2)c(-c2ccc(C(=O)NCC3CC3)nc2C(=O)OC(C)OC(=O)OC(C)(C)C)cc1OC (stereo not shown) [Compound 41a, 1-((tert-butoxycarbonyl)oxy)ethyl 6-((cyclopropylmethyl)carbamoyl)-3-(2-((4-(N-((hexyloxy)carbonyl)carbamimidoyl)phenyl)carbamoyl)-5-methoxy-4-vinylphenyl)picolinate] | B (B = 1,001-10,000 ng/mL)
5 | C=Cc1cc(C(=O)Nc2ccc(C(=N)NC(=O)OCC)cc2)c(-c2ccc(C(=O)NCC3CC3)nc2C(=O)OC(C)OC(=O)C(C)C)cc1OC (stereo not shown) [Compound 42a, 1-(isobutyryloxy)ethyl 6-((cyclopropylmethyl)carbamoyl)-3-(2-((4-(N-(ethoxycarbonyl)carbamimidoyl)phenyl)carbamoyl)-5-methoxy-4-vinylphenyl)picolinate] | C (C >10,000 ng/mL)
6 | C=Cc1cc(C(=O)Nc2ccc(C(=N)NC(=O)OCC)cc2)c(-c2ccc(C(=O)NCC3CC3)nc2C(=O)OC(C)OC(=O)OC(C)C)cc1OC (stereo not shown) [Compound 43a, 1-((isopropoxycarbonyl)oxy)ethyl 6-((cyclopropylmethyl)carbamoyl)-3-(2-((4-(N-(ethoxycarbonyl)carbamimidoyl)phenyl)carbamoyl)-5-methoxy-4-vinylphenyl)picolinate] | C (C >10,000 ng/mL)
7 | C=Cc1cc(C(=O)Nc2ccc(C(=N)NC(=O)OCc3oc(=O)oc3C)cc2)c(-c2ccc(C(=O)NCC3CC3)nc2C(=O)O)cc1OC [Compound 44b, 6-((cyclopropylmethyl)carbamoyl)-3-(5-methoxy-2-((4-(N-(((5-methyl-2-oxo-1,3-dioxol-4-yl)methoxy)carbonyl)carbamimidoyl)phenyl)carbamoyl)-4-vinylphenyl)picolinic acid] | A (A = 0-1,000 ng/mL)
8 | C=Cc1cc(C(=O)Nc2ccc(C(=N)NC(=O)OCCCCCC)cc2)c(-c2ccc(C(=O)NCC3CC3)nc2C(=O)OCOC(=O)CN)cc1OC [Compound 45b, (2-aminoacetoxy)methyl 6-((cyclopropylmethyl)carbamoyl)-3-(2-((4-(N-((hexyloxy)carbonyl)carbamimidoyl)phenyl)carbamoyl)-5-methoxy-4-vinylphenyl)picolinate] | A (A = 0-1,000 ng/mL)
9 | C=Cc1cc(C(=O)Nc2ccc(C(=N)NC(=O)OC(C)OC(C)=O)cc2)c(-c2ccc(C(=O)NCC3CC3)nc2C(=O)OC(C)OC(=O)OC(C)C)cc1OC (stereo not shown) [Compound 47a, 1-((isopropoxycarbonyl)oxy)ethyl 3-(2-((4-(N-((1-acetoxyethoxy)carbonyl)carbamimidoyl)phenyl)carbamoyl)-5-methoxy-4-vinylphenyl)-6-((cyclopropylmethyl)carbamoyl) picolinate] | B (B = 1,001-10,000 ng/mL)
10 | C=Cc1cc(C(=O)Nc2ccc(C(=N)NC(=O)OC(C)OC(C)=O)cc2)c(-c2ccc(C(=O)NCC3CC3)nc2C(=O)OC(C)OC(=O)C(C)C)cc1OC (stereo not shown) [Compound 48b, 1-(isobutyryloxy)ethyl 3-(2-((4-(N-((1-acetoxyethoxy)carbonyl)carbamimidoyl)phenyl)carbamoyl)-5-methoxy-4-vinylphenyl)-6-((cyclopropylmethyl)carbamoyl)picolinate] | C (C >10,000 ng/mL)
11 | C=Cc1cc(C(=O)Nc2ccc(C(=N)NC(=O)OC(C)OC(=O)C(C)C)cc2)c(-c2ccc(C(=O)NCC3CC3)nc2C(=O)OC(C)OC(=O)OC(C)C)cc1OC (stereo not shown) [Compound 49a, 1-((isopropoxycarbonyl)oxy)ethyl 6-((cyclopropylmethyl)carbamoyl)-3-(2-((4-(N-((1-(isobutyryloxy)ethoxy)carbonyl)carbamimidoyl)phenyl)carbamoyl)-5-methoxy-4-vinylphenyl)picolinate] | B (B = 1,001-10,000 ng/mL)
12 | C=Cc1cc(C(=O)Nc2ccc(C(=N)NC(=O)OCCCCCC)cc2)c(-c2ccc(C(=O)NCC3CC3)nc2C(=O)OCOC(=O)[C@@H](N)CC(C)C)cc1OC [Compound 50d, (S)-((2-amino-4-methylpentanoyl)oxy)methyl 6-((cyclopropylmethyl)carbamoyl)-3-(2-((4-(N-((hexyloxy)carbonyl)carbamimidoyl)phenyl)carbamoyl)-5-methoxy-4-vinylphenyl)picolinate] | B (B = 1,001-10,000 ng/mL)
13 | C=Cc1cc(C(=O)Nc2ccc(C(=N)NO)cc2)c(-c2ccc(C(=O)NCC3CC3)nc2C(=O)OC(C)OC(=O)OC(C)C)cc1OC (stereo not shown) [Compound 51b, 1-((isopropoxycarbonyl)oxy)ethyl 6-((cyclopropylmethyl)carbamoyl)-3-(2-((4-(N-hydroxycarbamimidoyl)phenyl)carbamoyl)-5-methoxy-4-vinylphenyl)picolinate] | A (A = 0-1,000 ng/mL)
14 | C=Cc1cc(C(=O)Nc2ccc(-c3noc(=O)[nH]3)cc2)c(-c2ccc(C(=O)NCC3CC3)nc2C(=O)OC(C)OC(=O)OC(C)C)cc1OC (stereo not shown) [Compound 52b, 1-((isopropoxycarbonyl)oxy)ethyl 6-((cyclopropylmethyl)carbamoyl)-3-(5-methoxy-2-((4-(5-oxo-4,5-dihydro-1,2,4-oxadiazol-3-yl)phenyl)carbamoyl)-4-vinylphenyl)picolinate] | A (A = 0-1,000 ng/mL)
15 | C=Cc1cc(C(=O)Nc2ccc(C(=N)NC(=O)OC(C)OC(=O)[C@@H](N)C(C)C)cc2)c(-c2ccc(C(=O)NCC3CC3)nc2C(=O)OC(C)OC(=O)OC(C)C)cc1OC (stereo partly drawn) [Compound 54c, 1-((isopropoxycarbonyl)oxy)ethyl 3-(2-((4-(N-((1-(((S)-2-amino-3-methylbutanoyl)oxy)ethoxy)carbonyl)carbamimidoyl)phenyl)carbamoyl)-5-methoxy-4-vinylphenyl)-6-((cyclopropylmethyl)carbamoyl)picolinate] | B (B = 1,001-10,000 ng/mL)
16 | C=Cc1cc(C(=O)Nc2ccc(C(=N)NC(=O)OC(C)OC(=O)[C@@H](N)C(C)C)cc2)c(-c2ccc(C(=O)NCC3CC3)nc2C(=O)OC(C)OC(=O)C(C)C)cc1OC (stereo partly drawn) [Compound 55b, 1-(isobutyryloxy)ethyl 3-(2-((4-(N-((1-(((S)-2-amino-3-methylbutanoyl)oxy)ethoxy)carbonyl)carbamimidoyl)phenyl)carbamoyl)-5-methoxy-4-vinylphenyl)-6-((cyclopropylmethyl)carbamoyl)picolinate] | B (B = 1,001-10,000 ng/mL)
17 | C=Cc1cc(C=O)c(-c2ccc(C(=O)NCC3CC3)nc2C(=O)OC(OC(=O)C(C)(C)C)C(C)C)cc1OC (stereo not shown) [Compound 56b, 2-methyl-1-(pivaloyloxy)propyl 6-((cyclopropylmethyl)carbamoyl)-3-(2-formyl-5-methoxy-4-vinylphenyl)picolinate] | C (C >10,000 ng/mL)
18 | C=Cc1cc(C(=O)Nc2ccc(C(=N)NC(=O)OCCCCCC)cc2)c(-c2ccc(C(=O)NCC3CC3)nc2C(=O)OC(OC(=O)C(C)(C)C)C(C)C)cc1OC (stereo not shown) [Compound 57a, 2-methyl-1-(pivaloyloxy)propyl 6-((cyclopropylmethyl)carbamoyl)-3-(2-((4-(N-((hexyloxy)carbonyl)carbamimidoyl)phenyl)carbamoyl)-5-methoxy-4-vinylphenyl)picolinate] | B (B = 1,001-10,000 ng/mL)
19 | C=Cc1cc(C(=O)Nc2ccc(C(=N)N)cc2)c(-c2ccc(C(=O)NCC3CC3)nc2C(=O)OC(C)OC(=O)[C@@H](N)C(C)C)cc1OC.Cl (stereo partly drawn) [Compound 58f, 1-(((S)-2-amino-3-methylbutanoyl)oxy)ethyl 3-(2-((4-carbamimidoylphenyl)carbamoyl)-5-methoxy-4-vinylphenyl)-6-((cyclopropylmethyl)carbamoyl)picolinate Hydrochloride] | B (B = 1,001-10,000 ng/mL)
